Source: ChEMBL document CHEMBL3507680, “University of Dundee, Gates Library screen for HepG2 cell viability”

Assay: Human HepG2 cell viability assay in 384 well format
Assay type: toxicity, cell-based
Set-up: dose 125 nL, time 70.5 hour; cytotoxicity at 70.5 h: concentration not given beside the values
Settings: HepG2 cells, read-out: Inhibition

| SMILES | cytotoxicity at 70.5 h [%] |
| --- | --- |
| COc1ccc(C(=O)NCc2ccc(C(=O)O)o2)cc1 | 27.3 |
| CC(=O)c1c(N(C)C)ccnc1C(F)(F)F | -6.51 |
| Cn1nccc1CNC(=O)C1CCCCC1 | -2.81 |
| COC(=O)C1=C(C)N=C2SCC(=O)N2C1c1cnn(C)c1C (stereo not given) | -1.28 |
| NC(=O)c1ccn(COc2ccccc2Cl)n1 | -9.79 |
| Cc1cc(C(F)(F)F)nn1CC(C)C(=O)NC(C)C (stereo not given) | 19.9 |
| O=C(NC1CC1)c1ccn(COc2c(Cl)cccc2Cl)n1 | -14.6 |
| CC(Cn1cc(Br)cn1)C(=O)Nc1ccc(C(N)=O)cc1 (stereo not given) | 7.39 |
| CCOC(=O)N1CCN(C(=O)c2cc(-c3ccc(C)cc3)on2)CC1 | 5.24 |
| Cn1cc(S(=O)(=O)NCc2ccc(F)cc2)cn1 | -2.02 |
| CCS(=O)(=O)Nc1cnn(Cc2cccc(C)c2)c1 | -3.36 |
| CCn1ncc(S(=O)(=O)NC(C)c2cc(OC)ccc2OC)c1C (stereo not given) | 20.2 |
| Cc1nn(CCCNC(=O)C2CCN(S(C)(=O)=O)CC2)cc1Cl | 36.7 |
| CCn1cc(NS(=O)(=O)c2ccc(F)cc2)c(C(=O)NCC(C)C)n1 | -1.23 |
| O=C(c1ccc(COc2ccccc2Cl)o1)N1N=CCC1(O)C(F)(F)F (stereo not given) | -4.75 |
| O=C1CCC(=O)c2oc3ccc(Br)cc3c2N1 | -12.5 |
| O=C1CCC(=O)c2oc3ccc(Cl)cc3c2N1 | -14 |
| CC1=C(C(N)=O)C(c2cn(C)nc2C)N2C(=O)CSC2=N1 (stereo not given) | -9.38 |
| O=C(CCS(=O)(=O)c1ccccc1)NCCCn1cccn1 | -16.1 |
| CCn1cc(CN2CCN(C(=O)c3cc(C)c(C)s3)CC2)c(C)n1 | -10.4 |
| CCn1cc(CN2CCN(C(=O)c3cc(Br)cs3)CC2)c(C)n1 | 22.9 |
| Cc1nn(C)cc1-c1cc(-c2cn(C)nc2C)n(CC(=O)NC2CC2)n1 | -7.88 |
| O=C(c1cnn2c(-c3ccco3)ccnc12)N1CCCCCC1 | -8.53 |

| SMILES | cytotoxicity at 70.5 h [%] |
| --- | --- |
| CC1CCN(C(=O)c2cnn3c(-c4ccco4)ccnc23)CC1 | -8.7 |
| Cc1nn(C)cc1-c1cc(C(F)(F)F)nc(NC2CCCCC2)n1 | -9.44 |
| Cc1nn(C)cc1-c1cc(C(F)(F)F)nc(NC2CCN(C)CC2)n1 | -4.19 |
| Cc1nn(C)cc1S(=O)(=O)NCC(C)Cn1cc(Cl)cn1 (stereo not given) | 3.54 |
| Cc1noc(C)c1S(=O)(=O)N(C)Cc1nn(C)c(Cl)c1Cl | 24.3 |
| Cc1c(S(=O)(=O)N(CCc2ccccc2)Cc2ccn(C)n2)cnn1C | -8.56 |
| Cc1nn(C)c(C)c1S(=O)(=O)N(C)Cc1nn(C)c(Cl)c1Cl | 18.2 |
| O=C(Cn1cc(C(=O)O)cn1)Nc1c(Cl)cccc1Cl | -5.99 |
| CCn1ccc(-c2cc(C(=O)O)n3ncc(Br)c3n2)n1 | -11.6 |
| CCn1ncc2c(C(F)(F)F)cc(-c3ccn(C)n3)nc21 | -8.47 |
| CCCn1ncc2c(C(=O)NC(C)Cn3cccn3)cc(C3CC3)nc21 (stereo not given) | -13.1 |
| COC(=O)CNC(=O)c1cc(-c2ccccc2)nc2ncnn12 | -0.256 |
| CCOc1ccc2oc(-c3cn(C)nc3C)c(O)c(=O)c2c1 | 32.5 |
| COc1ccc2oc(-c3cn(C)nc3C)c(O)c(=O)c2c1 | -1.34 |
| CC(=O)c1c(C)nn(S(=O)(=O)c2ccc(F)cc2)c1C | 1.95 |
| c1cncc(CNc2ccccc2-c2nn[nH]n2)c1 | -5.95 |
| COc1ccc(-c2cc(C3(O)CCOC(C)(C)C3)on2)cc1 (stereo not given) | -11.5 |
| O=C1N[C@H]2OCCC[C@H]2[C@H](c2ccccc2)N1 | -12.3 |
| c1ccc2c3c([nH]c2c1)C(c1nn[nH]n1)CCC3 (stereo not given) | -10.7 |
| Brc1ccc2[nH]c3c(c2c1)CCCC3c1nn[nH]n1 (stereo not given) | -14.8 |
| COc1c(Br)c(CC2CC(CO)=NO2)c(OC)c2c1OCO2 (stereo not given) | -9.88 |
| COc1cc(CC2CC(C(N)=O)=NO2)cc2c1OCO2 (stereo not given) | -7.88 |
| Cc1cc(N)n(-c2ccc3nnc(C)n3n2)n1 | 6.51 |

| SMILES | cytotoxicity at 70.5 h [%] |
| --- | --- |
| COc1ccc(C2=NOC(CC#N)C2)cc1 (stereo not given) | -1.51 |
| COc1ccc(C2=NOC(CO)C2)cc1 (stereo not given) | -14.5 |
| CNc1[nH]nc(N)c1C(=O)Nc1ccccc1 | 2.68 |
| Cn1ncc2c1NC(=O)CC2c1ccc(F)cc1 (stereo not given) | 1.96 |
| COc1ccccc1CNC(=O)c1[nH]ncc1Cl | 6.24 |
| CC(=O)Oc1ccnc(C(F)(F)F)c1C(C)=O | -3.5 |
| COc1cc(-c2n[nH]c(CC#N)n2)cc(OC)c1OC | 51.6 |
| COC(=O)CCn1ccc(=O)c2ccc(OC)cc21 | 19.7 |
| O=C(NCCCO)c1nnsc1-c1ccc(Cl)cc1 | -13.1 |
| Cc1ncc2c(n1)CCCC2NC(=O)c1ccccc1C(=O)O (stereo not given) | -13.5 |
| O=C(c1cc(-c2cccs2)cs1)N1CCSCC1 | -5.68 |
| O=C(NCC1CCCO1)c1cc(Sc2ncccn2)ccn1 (stereo not given) | 24.8 |
| Cc1cccc(C(=O)Nc2c(C(=O)N(C)C)nn(C)c2C)c1 | -3.25 |
| Cc1ccc(C(=O)Nc2c(C(=O)N(C)C)nn(C)c2C)cc1C | -4.41 |
| Cc1nn(C)cc1C(=O)NCc1csc(C2CC2)n1 | 18.9 |
| CCn1cc(CCC(=O)NCc2csc(C3CC3)n2)c(C)n1 | -11.7 |
| CCn1cc(C(=O)NCc2csc(C3CC3)n2)c(C)n1 | -3.62 |
| Cc1ccc2c(cnn2CCC(=O)NCc2csc(C3CC3)n2)c1 | 22.8 |
| Cn1ncc(C(=O)N2CCN(CCS(C)(=O)=O)CC2)c1Cl | 18.4 |
| O=C(c1ccc(-c2ccc(O)nc2)s1)N1CCCCCC1 | -10.4 |
| Cc1nc(Nc2nnc(C)s2)cc(C2CCCN2C2CCCC2)n1 (stereo not given) | -5.26 |
| Cc1cnc(N)c(C(=O)C2CCN(C(=O)C3CCC3)CC2)c1 | 11.3 |
| O=C(c1ccncc1)N1CCCC(c2ncncc2-c2ccncc2)C1 (stereo not given) | -4.43 |

| SMILES | cytotoxicity at 70.5 h [%] |
| --- | --- |
| Cc1cc(-c2cnc(N3CCC(O)CC3)nc2-c2cccnc2C)on1 | 8.43 |
| Cc1cc(-c2cnc(N3CCCCCC3)nc2-c2cccnc2C)on1 | -12.8 |
| COc1cc(C2Nc3cc(Cl)ccc3C3=NCCN32)ccc1O (stereo not given) | -8.38 |
| NC(=O)C1CCN(c2ncc(-c3cnccn3)c([C@H]3CCCO3)n2)CC1 | -11.5 |
| CNc1cncc(C2CCCN2c2cc(C)ncn2)n1 (stereo not given) | 17.1 |
| CC(=O)N1CCCC(c2ccc(N3CCN(C)CC3)cn2)C1 (stereo not given) | -3.54 |
| COc1cccc(CN2CCC(c3nn(CCN)c4nccnc34)C2)c1 (stereo not given) | 17 |
| CN1CCCCC1c1ncc2c(n1)CCN(Cc1ccc(Cl)c(F)c1)C2 (stereo not given) | -3.53 |
| O=C(C1CCCO1)N1CCC(O)(Cn2ccc3ccncc32)CC1 (stereo not given) | 15.9 |
| Cc1cc2c(=O)n3c(nc2s1)CCN(C(=O)c1ccnn1C(C)C)CC3 | -7.45 |
| Cc1cc2c(=O)n3c(nc2s1)CCN(C(=O)c1c(C)noc1C)CC3 | -3.89 |
| C[C@@H]1C[C@H](C(F)(F)F)n2nc(C3CCN(S(C)(=O)=O)CC3)cc2N1 | -2.94 |
| C[C@@H]1C[C@H](C(F)(F)F)n2nc(C3CCN(S(=O)(=O)N(C)C)CC3)cc2N1 | -5.83 |
| Cc1ccc(S(=O)(=O)N2C[C@H]3C[C@H](NC(=O)c4cnn(C)c4)[C@H]3C2)cc1 | 33.7 |
| O=S1(=O)NC(C2CCN(Cc3ccncc3)CC2)Nc2ccccc21 (stereo not given) | 23.9 |
| Cc1cc(-c2cnc(N3CCNC(=O)C3)nc2-c2ccoc2C)on1 | -6.66 |
| CC(=O)N1CCCC(c2ccc(Cc3ccccc3)cn2)C1 (stereo not given) | 20 |
| O=C(c1ncccn1)N1C[C@@H]2CC[C@H](Oc3cccc(F)c3)[C@@H]2C1 | -6.95 |
| O=C(c1cccnn1)N1C[C@@H]2CC[C@H](Oc3cccc(F)c3)[C@@H]2C1 | 14.9 |
| NCc1cnn(-c2ccccc2C(=O)NCCc2ccncc2)c1 | -7.18 |
| Cc1noc(C)c1-c1cncc(C2CCCN2Cc2c[nH]cn2)n1 (stereo not given) | -6.81 |
| Cc1noc(C)c1-c1cncc(C2CCCN2Cc2ncc[nH]2)n1 (stereo not given) | 16.2 |
| NCCn1nc(C2CCN(C(=O)Cc3ccccc3)C2)c2nccnc21 (stereo not given) | -5.36 |

| SMILES | cytotoxicity at 70.5 h [%] |
| --- | --- |
| CCCn1ncc(CN2C[C@@H]3CCCN3C[C@H]2CCSC)c1C | -1.67 |
| COCC(=O)N1CCC(c2cncc(-c3cccc(F)c3)n2)CC1 | -7.23 |
| CC(=O)N1CCCN(c2cc(C3CN(C)CCO3)nc(C)n2)CC1 (stereo not given) | 12 |
| OCCN1CCCC(c2nccnc2Oc2ccc(F)cc2)C1 (stereo not given) | -2.84 |
| Cc1nc(Nc2cnccn2)cc(C2CCCN2C2CCOCC2)n1 (stereo not given) | -5.63 |
| Cc1c(C(=O)N2CC(Cc3nccc4ccn(C)c34)C2)cnn1C | -6.29 |
| Cc1nc(C2CCCN2C(=O)CC2CCCC2)ncc1C(N)=O (stereo not given) | -4.71 |
| Cc1c[nH]nc1C1CCN(S(=O)(=O)N(C)C)C1 (stereo not given) | -8.85 |
| CCCn1ccnc1CN1CCN(C2CCOCC2)CC(C(N)=O)C1 (stereo not given) | -10.4 |
| CNc1cc(C)nc(C2CN(Cc3ccc(Cl)cn3)CCO2)c1 (stereo not given) | -5.55 |
| COC(=O)c1cc(NC(=O)CCc2cscn2)ccc1C | -5.71 |
| Cc1ccc(NC(=O)N2CCOC(C)(c3cnn(C)c3)C2)c(C)c1 (stereo not given) | -3.64 |
| O=c1c2sccc2nc2n1CCN(Cc1ccc(F)c(F)c1)CC2 | -9.83 |
| C[C@H](N)Cn1nc(-c2cccs2)oc1=O | -1.53 |
| O=C(CN1CCCC1=O)N1CCC(O)(Cn2ccc3ccncc32)CC1 | -5.71 |
| COc1cccc(CN2CCc3nc4ccsc4c(=O)n3CC2)c1 | 12.2 |
| CCOc1ccccc1CN1CCc2nc3ccsc3c(=O)n2CC1 | -7.1 |
| Cc1nc(C2(O)CCCNCC2)sc1CCOc1ccc(F)c(F)c1 (stereo not given) | -4.26 |
| Nc1cnn(CC(=O)N2CCCCC2)c1 | 3.95 |
| CCOc1cc(CN[C@@H]2COC[C@H]2Cc2cc(C)no2)ccc1O | -2.12 |
| OC1CCN(Cc2ccnc(-c3cccnc3)n2)CC1 | -7.13 |
| OC1CCCN(Cc2ccnc(-c3cccnc3)n2)C1 (stereo not given) | -4.64 |
| COC(=O)c1ccc(CN[C@@H]2COC[C@H]2Cc2cc(C)no2)cc1 | -4.83 |
